test system: NCI-H1417 cells; assay: Cell growth suppression test, CellTiter-Glo Luminescent Cell Viability Assay; format: cell-based; conditions: Homo sapiens, 240 h; NCI-H1417 cells treated for 10 days
Description: Cell growth suppression effects of the synthesized compounds on NCI-H1417 cells were identified. The cells were treated with the synthesized compounds for 10 days. Then, in order to test the cell growth suppression, CellTiter-Glo Luminescent Cell Viability Assay (available from Promega, USA) was used. This test is to measure emission signals proportional to the number of ATPs based on a fixed amount of ATPs, which represents the presence of metabolically active cells, thereby determining the number of viable cells. The results are expressed as a GI50 value. As for a control, GSK2879552 (available from GlaxoSmithKline USA) was used.

Compound	GI50
N#Cc1ccc(-c2cc(C(=O)N3CCC[C@@H](N)C3)nn2-c2ccc(C3CC3)cc2)cc1 [Example 1, (R)-4-(3-(3-aminopiperidine-1-carbonyl)-1-(4-cyclopropylphenyl)-1H-pyrazole-5-yl)benzonitrile]	94 nM
CN[C@@H]1CCCN(C(=O)c2cc(-c3ccc(C#N)cc3)n(-c3ccc(C4CC4)cc3)n2)C1 [Example 2, (R)-4-(1-(4-cyclopropylphenyl)-3-(3-methylaminopiperidine-1-carbonyl)-1H-pyrazole-5-yl)benzonitrile]	120 nM
N#Cc1ccc(-c2cc(C(=O)N3CCC[C@@H](N)C3)nn2-c2ccc(C3CC3)cc2F)cc1 [Example 3, (R)-4-(3-(3-aminopiperidine-1-carbonyl)-1-(4-cyclopropyl-2-fluorophenyl)-1H-pyrazole-5-yl)benzonitrile]	49 nM
CN[C@@H]1CCCN(C(=O)c2cc(-c3ccc(C#N)cc3)n(-c3ccc(C4CC4)cc3F)n2)C1 [Example 4, (R)-4-(1-(4-cyclopropyl-2-fluorophenyl)-3-(3-(methylamino)piperidine-1-carbonyl)-1H-pyrazole-5-yl)benzonitrile]	24 nM
N#Cc1ccc(-c2cc(C(=O)N3CCC[C@@H](N)C3)nn2-c2ccc(C3CC3)cc2F)cc1F [Example 5, (R)-4-(3-(3-aminopiperidine-1-carbonyl)-1-(4-cyclopropyl-2-fluorophenyl)-1H-pyrazole-5-yl)-2-fluorobenzonitrile]	48 nM
N#Cc1ccc(-c2cc(C(=O)N3CCCC[C@@H](N)C3)nn2-c2ccc(C3CC3)cc2F)cc1F [Example 8, (R)-4-(3-(3-aminoazepane-1-carbonyl)-1-(4-cyclopropyl-2-fluorophenyl)-1H-pyrazole-5-yl)-2-fluorobenzonitrile]	101 nM
N#Cc1ccc(-c2cc(C(=O)N3CCC[C@@H](N)C3)nn2-c2c(F)cc(C3CC3)cc2F)cc1F [Example 10, (R)-4-(3-(3-aminopiperidine-1-carbonyl)-1-(4-cyclopropyl-2,6-difluorophenyl)-1H-pyrazole-5-yl)-2-fluorobenzonitrile]	108 nM
CC(C)c1ccc(-n2nc(C(=O)N3CCC[C@@H](N)C3)cc2-c2ccc(C#N)cc2)cc1 [Example 35, (R)-4-(3-(3-aminopiperidine-1-carbonyl)-1-(4-isopropylphenyl)-1H-pyrazole-5-yl)benzonitrile]	145 nM
CN[C@@H]1CCCN(C(=O)c2cc(-c3ccc(C#N)cc3)n(-c3ccc(C(C)C)cc3)n2)C1 [Example 36, (R)-4-(1-(4-isopropylphenyl)-3-(3-(methylamino)piperidine-1-carbonyl)-1H-pyrazole-5-yl) benzonitrile]	91 nM
CC(C)c1ccc(-n2nc(C(=O)N3CCC[C@@H](N)C3)cc2-c2ccc(C#N)cc2)c(F)c1 [Example 37, (R)-4-(3-(3-aminopiperidine-1-carbonyl)-1-(2-fluoro-4-isopropylphenyl)-1H-pyrazole-5-yl) benzonitrile]	215 nM
CC(C)c1ccc(-n2nc(C(=O)N3CCC[C@@H](N)C3)cc2-c2ccc(C#N)c(F)c2)c(F)c1 [Example 38, (R)-4-(3-(3-aminopiperidine-1-carbonyl)-1-(2-fluoro-4-isopropylphenyl)-1H-pyrazole-5-yl)-2-fluorobenzonitrile]	79 nM
CC(C)c1ccc(-n2nc(C(=O)N3CCCC[C@@H](N)C3)cc2-c2ccc(C#N)c(F)c2)c(F)c1 [Example 39, (R)-4-(3-(3-aminoazepane-1-carbonyl)-1-(2-fluoro-4-isopropylphenyl)-1H-pyrazole-5-yl)-2-fluorobenzonitrile]	139 nM
CC(C)(C)c1ccc(-n2nc(C(=O)N3CCC[C@@H](N)C3)cc2-c2ccc(C#N)cc2)cc1 [Example 40, (R)-4-(3-(3-aminopiperidine-1-carbonyl)-1-(4-(tert-butyl)phenyl)-1H-pyrazole-5-yl)benzonitrile]	226 nM
CN[C@@H]1CCCN(C(=O)c2cc(-c3ccc(C#N)cc3)n(-c3ccc(C(C)(C)C)cc3)n2)C1 [Example 41]	126 nM
CC(C)(C)c1ccc(-n2nc(C(=O)N3CCC[C@@H](N)C3)cc2-c2ccc(C#N)cc2)c(F)c1 [Example 42, (R)-4-(3-(3-aminopiperidine-1-carbonyl)-1-(4-(tert-butyl)-2-fluorophenyl)-1H-pyrazole-5-yl)benzonitrile]	226 nM
CC(C)(C)c1ccc(-n2nc(C(=O)N3CCC[C@@H](N)C3)cc2-c2ccc(C#N)c(F)c2)c(F)c1 [Example 43]	69 nM
CC(C)(C)c1ccc(-n2nc(C(=O)N3CCCC[C@@H](N)C3)cc2-c2ccc(C#N)c(F)c2)c(F)c1 [Example 44]	133 nM
CN(C)c1ccc(-n2nc(C(=O)N3CCC[C@@H](N)C3)cc2-c2ccc(C#N)cc2)cc1 [Example 53]	102 nM
CN(C)c1ccc(-n2nc(C(=O)N3CCC[C@@H](N)C3)cc2-c2ccc(C#N)cc2)c(F)c1 [Example 54, (R)-4-(3-(3-aminopiperidine-1-carbonyl)-1-(4-(dimethylamino)-2-fluorophenyl)-1H-pyrazole-5-yl)benzonitrile]	84 nM
N#Cc1ccc(-c2cc(C(=O)N3CCC[C@@H](N)C3)nn2-c2ccc(N3CCCC3)cc2F)cc1 [Example 57, (R)-4-(3-(3-aminopiperidine-1-carbonyl)-1-(2-fluoro-4-(pyrrolidine-1-yl)phenyl)-1H-pyrazole-5-yl)benzonitrile]	45 nM
N#Cc1ccc(-c2cc(C(=O)N3CCC[C@@H](N)C3)nn2-c2ccc(N3CCCC3)cc2F)cc1F [Example 58, (R)-4-(3-(3-aminopiperidine-1-carbonyl)-1-(2-fluoro-4-(pyrrolidine-1-yl)phenyl)-1H-pyrazole-5-yl)-2-fluorobenzonitrile]	24 nM
CN[C@@H]1CCCN(C(=O)c2cc(-c3ccc(C#N)c(F)c3)n(-c3ccc(N4CCCC4)cc3F)n2)C1 [Example 59, (R)-2-fluoro-4-(1-(2-fluoro-4-(pyrrolidine-1-yl)phenyl)-3-(3-(methylamino)piperidine-1-carbonyl)-1H-pyrazole-5-yl)benzonitrile]	9.7 nM
N#Cc1ccc(-c2cc(C(=O)N3CCCC[C@@H](N)C3)nn2-c2ccc(N3CCCC3)cc2F)cc1F [Example 60, (R)-4-(3-(3-aminoazepane-1-carbonyl)-1-(2-fluoro-4-(pyrrolidine-1-yl)phenyl)-1H-pyrazole-5-yl)-2-fluorobenzonitrile]	53 nM
N#Cc1ccc(-c2cc(C(=O)N3CCC[C@@H](N)C3)nn2-c2ccc(N3CC[C@@H](F)C3)cc2F)cc1F [Example 61, 4-(3-((R)-3-aminopiperidine-1-carbonyl)-1-(2-fluoro-4-((R)-3-fluoropyrrolidine-1-yl)phenyl)-1H-pyrazole-5-yl)-2-fluorobenzonitrile]	82 nM
N#Cc1ccc(-c2cc(C(=O)N3CCC[C@@H](N)C3)nn2-c2ccc(N3CCC(F)(F)C3)cc2F)cc1F [Example 63, (R)-4-(3-(3-aminopiperidine-1-carbonyl)-1-(4-(3,3-difluoropyrrolidine-1-yl)-2-fluorophenyl)-1H-pyrazole-5-yl)-2-fluorobenzonitrile]	33 nM
CN[C@@H]1CCCN(C(=O)c2cc(-c3ccc(C#N)c(F)c3)n(-c3ccc(N4CCC(F)(F)C4)cc3F)n2)C1 [Example 64, (R)-4-(1-(4-(3,3-difluoropyrrolidine-1-yl)-2-fluorophenyl)-3-(3-(methylamino)piperidine-1-carbonyl)-1H-pyrazole-5-yl)-2-fluorobenzonitrile]	19 nM
